Structures are written as SMILES. Some results are limits rather than exact numbers.

For one experiment, the target named is T1, BRD4 BD1 (Homo sapiens, UniProt O60885).
T1 construct: made in house
Kind of experiment: AlphaScreen binding assay, BRD4 Bromodomain 1. Here is the method: (§1) The binding of Example compounds to BRD4 Bromodomain 1 and BRD4 Bromodomain 2 was assessed using 384-well AlphaScreen assay technology. His-epitope tagged BRD4 BD144-168 and BRD4 BD2333-460 were cloned, expressed, and purified to homogeneity. BRD4 BD1 and BRD4 BD2 binding and inhibition was assessed by monitoring the engagement of biotinylated Histone H4 (1-21) K5/8/12/16 tetra-acetylated peptide with the targets using the AlphaScreen technology (PerkinElmer). Specifically, in a 384-well black or white flat bottom plate, BRD4 BD1 (50 nM final) or BRD4 BD2 (100 nM final) was combined with peptide (50 nM final for BD1 or 100 nM final for BD2) in 50 mM HEPES (pH 7.3), 100 mM NaCl, 0.1% (w/v) BSA, and 0.01% (w/v) Triton X-100 either in the presence of DMSO (final 1.25% DMSO) or compound dilution series in DMSO. Alpha streptavidin donor beads and Nickel-chelate acceptor beads were added to a final concentration of 10 μg/ml each. After a minimum of 1 hour equilibration, plates were read on a BMG PHERAstar FS multi-label reader (BMG LabTech). The half maximal inhibitory concentration (IC50) values were calculated using IDBS Activity Base software with a four parameter logistic curve fit by the equation y=A+((B−A)/(1+((C/x)^D))), wherein A denotes the bottom plateau of the curve, B denotes the top plateau of the curve, C denotes the x value at the middle of the curve, D denotes the slope factor, x denotes the original known x values, and y denotes the original known y values. Data was fitted using the Levenburg Marquardt algorithm.
(In general: Alpha assays give light when donor and acceptor beads are brought close together.)

For a further experiment, the target named is T2, BRD4 BD2 (Homo sapiens, UniProt O60885).
T2 construct: made in house
Kind of experiment: AlphaScreen binding assay, BRD4 Bromodomain 2. Here is the method:
as §1

As usually defined, the IC50 is the concentration that inhibits the measured activity by half. For the compound `CC(=O)N1c2ccccc2N(C(=O)C2CCCC2)C[C@@H]1C` [Example I-714], the figures for the IC50 on BRD4 BD1 and at BRD4 BD2 were more than 10 µM and more than 0.5 µM, respectively.
As to `COc1ccc(C(=O)N2C[C@H](C)N(C(C)=O)c3ccc(-c4ccc(S(C)(=O)=O)cc4)cc32)cc1` [Example I-877], the results for the IC50 at BRD4 BD1 and at BRD4 BD2 were 1 to 10 µM and 0.05 to 0.5 µM, respectively.
The matching figures for `CC(=O)N1c2ccccc2N(Cc2ccc(OC(C)C)cc2)C[C@@H]1C` [Example I-917]: more than 10 µM and more than 0.5 µM.
Taken in the same sequence, the figures for `CC(=O)N1c2ccc(-c3cnn(Cc4noc(C)n4)c3)cc2N(C(=O)OC(C)C)C[C@@H]1C` [Example I-138, (S)-isopropyl 4-acetyl-3-methyl-7-(1-((5-methyl-1,2,4-oxadiazol-3-yl)methyl)-1H-pyrazol-4-yl)-3,4-dihydroquinoxaline-1(2H)-carboxylate] were 0.1 to 1 µM and 0.05 to 0.5 µM.
Taken in the same sequence, the figures for `CC(C)C(=O)N1c2ccc(-c3ccc(S(C)(=O)=O)cc3)cc2N(C(=O)c2ccco2)C[C@@H]1C` [Example I-370] were more than 10 µM and more than 0.5 µM.
For the compound `CCCn1cc(-c2cnc3c(c2)N(C(=O)c2ccco2)C[C@H](C)N3C(C)=O)cn1` [Example I-273], the IC50 at BRD4 BD1 is 1 to 10 µM; on BRD4 BD2, more than 0.5 µM.
Taken in the same sequence, the figures for `CC(=O)N1c2ccc(-c3ccc(S(C)(=O)=O)cc3)cc2N(C(=O)Nc2ccccc2Cl)C[C@@H]1C` [Example I-973] were 1 to 10 µM and 0.05 to 0.5 µM.
The matching figures for `CC(=O)Nc1cccc(C(=O)N2C[C@H](C)N(C(C)=O)c3ccc(-c4ccc(S(C)(=O)=O)cc4)cc32)c1` [Example I-889]: more than 10 µM and more than 0.5 µM.
`CC(=O)N1c2ccccc2N(C(=O)CSc2ccccc2)C[C@@H]1C` [Example I-727]: the half-inhibitory concentration (IC50) at BRD4 BD1 is more than 10 µM; at BRD4 BD2 it was more than 0.5 µM.
With `CC(=O)N1c2ccccc2N(C(=O)c2c(C)noc2C)C[C@@H]1C` [Example I-768], the IC50 is more than 10 µM at BRD4 BD1 and more than 0.5 µM on BRD4 BD2.
The matching figures for `COC(=O)N1c2ccc(-c3ccc(S(=O)(=O)CCN)cc3)cc2N(C(=O)C2CC2)C[C@@H]1C` [Example I-461]: 1 to 10 µM and 0.05 to 0.5 µM.
The matching figures for `CC(=O)N1c2ccc(-c3ccns3)cc2N(C(=O)c2ccco2)C[C@@H]1C` [Example I-434]: 1 to 10 µM and 0.05 to 0.5 µM.
The matching figures for `COc1cccc(CC(=O)N2C[C@H](C)N(C(C)=O)c3ccccc32)c1` [Example I-699]: more than 10 µM and more than 0.5 µM.
With `COC(=O)N1c2ccc(-c3ccc(N4CCCS4(=O)=O)cc3)cc2N(C(=O)Oc2cccnc2)C[C@@H]1C` [Example I-1287], the IC50 was 1 to 10 µM on BRD4 BD1 and more than 0.5 µM on BRD4 BD2.
Taken in the same sequence, the figures for `CC(=O)N1c2ccc(Oc3ccccc3)nc2N(C(=O)C2CC2)C[C@@H]1C` [Example I-97, (S)-1-(4-(cyclopropanecarbonyl)-2-methyl-6-phenoxy-3,4-dihydropyrido[2,3-b]pyrazin-1(2H)-yl)ethanone] were more than 10 µM and more than 0.5 µM.
The matching figures for `COc1ccc(Cl)c(OC(=O)N2C[C@H](C)N(C(C)=O)c3ccc(-c4cnn(C5CC5)c4)cc32)c1` [Example I-531]: 1 to 10 µM and 0.05 to 0.5 µM.
The matching figures for `CC(=O)N1c2ccc(-c3ccc(S(C)(=O)=O)cc3)cc2N(C(=O)OC2CCC(F)(F)CC2)C[C@@H]1C` [Example I-32, (S)-4,4-difluorocyclohexyl 4-acetyl-3-methyl-7-(4-(methylsulfonyl)phenyl)-3,4-dihydroquinoxaline-1(2H)-carboxylate]: 0.1 to 1 µM and less than 0.05 µM.
`COc1cc(OC(=O)N2C[C@H](C)N(C(C)=O)c3ccc(-c4cnn(C5CC5)c4)cc32)c(Cl)cn1` [Example I-1209]: the 50% inhibitory concentration (IC50) at BRD4 BD1 was in the range of 1 to 10 µM; at BRD4 BD2, 0.05 to 0.5 µM.
As to `CC(=O)N1c2ccc(-c3ccc(S(C)(=O)=O)cc3)cc2N(C(=O)c2nccn2C)C[C@@H]1C` [Example I-784], the 50% inhibitory concentration (IC50) at BRD4 BD1 was more than 10 µM; at BRD4 BD2, more than 0.5 µM.
Taken in the same sequence, the figures for `COCCOC(=O)N1C[C@H](C)N(C(C)=O)c2ccc(-c3ccc(S(C)(=O)=O)cc3)cc21` [Example I-249] were 1 to 10 µM and more than 0.5 µM.
`CC(=O)N1c2ccc(-c3ccc(N4CCCC4)cc3)cc2N(C(=O)c2ccco2)C[C@@H]1C` [Example I-298]: the results for the IC50 at BRD4 BD1 and on BRD4 BD2 were 1 to 10 µM and 0.05 to 0.5 µM, respectively.
The matching figures for `CC(=O)N1c2ccc(-c3cnn(CCS(C)(=O)=O)c3)cc2N(C(=O)C2CC2)CC1C` (stereo not shown) [Example I-344]: 1 to 10 µM and 0.05 to 0.5 µM.
As for `CC(=O)N1c2ccccc2N(C(=O)CC2CCCC2)C[C@@H]1C` [Example I-713], the figures for the IC50 on BRD4 BD1 and on BRD4 BD2 were more than 10 µM and more than 0.5 µM, respectively.
Taken in the same sequence, the figures for `C[C@H]1CN(C(=O)c2ccco2)c2cc(-c3ccc(S(C)(=O)=O)cc3)ccc2N1C(=O)N(C)C` [Example I-369] were more than 10 µM and more than 0.5 µM.
On to `CC(=O)N1c2ccccc2N(Cc2ccc(N3CCOCC3)nc2)C[C@@H]1C` [Example I-922], for which the IC50 was more than 10 µM at BRD4 BD1 and more than 0.5 µM at BRD4 BD2.
The matching figures for `CC(=O)N1c2ccccc2N(S(=O)(=O)c2ccccc2Cl)C[C@@H]1C` [Example I-942]: more than 10 µM and more than 0.5 µM.
The matching figures for `CC(=O)N1c2ccc(N3CCCC3)cc2N(C(=O)c2ccco2)C[C@@H]1C` [Example I-993]: 1 to 10 µM and 0.05 to 0.5 µM.
The matching figures for `CC(=O)N1c2ccc(-c3ccc(S(C)(=O)=O)cc3)cc2N(C(=O)NC2CCCC2)C[C@@H]1C` [Example I-968]: 1 to 10 µM and 0.05 to 0.5 µM.
With `CC(=O)N1c2ccc(-c3cccc(C(=O)NC4CC4)c3)cc2N(C(=O)c2ccco2)C[C@@H]1C` [Example I-802], the values for the 50% inhibitory concentration (IC50) on BRD4 BD1 and at BRD4 BD2 were 1 to 10 µM and less than 0.05 µM, respectively.
The matching figures for `CC(=O)N1c2ccccc2N(S(=O)(=O)Cc2cccc(C#N)c2)C[C@@H]1C` [Example I-958]: more than 10 µM and more than 0.5 µM.
The matching figures for `COc1ccc2[nH]c(C(=O)N3CC(C)N(C(C)=O)c4ccc(-c5ccc(S(C)(=O)=O)cc5)cc43)cc2c1` (stereo not shown) [Example I-882]: 1 to 10 µM and 0.05 to 0.5 µM.
With `CC(=O)N1c2ccccc2N(Cc2nccs2)C[C@@H]1C` [Example I-915], the IC50 on BRD4 BD1 was more than 10 µM; on BRD4 BD2 it was more than 0.5 µM.
For `CC(=O)N1c2ccc(-c3cnc(N(C)C)nc3)cc2N(C(=O)c2ccco2)C[C@@H]1C` [Example I-831], the 50% inhibitory concentration (IC50) on BRD4 BD1 is 1 to 10 µM; at BRD4 BD2 it was less than 0.05 µM.
Taken in the same sequence, the figures for `CC(=O)N1c2ccc(-c3cnn(CC(=O)N4CCOCC4)c3)cc2N(C(=O)C2CC2)C[C@@H]1C` [Example I-125, (S)-2-(4-(1-acetyl-4-(cyclopropanecarbonyl)-2-methyl-1,2,3,4-tetrahydroquinoxalin-6-yl)-1H-pyrazol-1-yl)-1-morpholinoethanone] were 1 to 10 µM and 0.05 to 0.5 µM.
Taken in the same sequence, the figures for `CC(=O)N1c2ccccc2N(C(=O)c2cc3ccccc3n2C)C[C@@H]1C` [Example I-748] were more than 10 µM and more than 0.5 µM.
The matching figures for `CC(=O)N1c2ccc(-c3cnn(C4COC4)c3)cc2N(C(=O)CC(F)(F)F)C[C@@H]1C` [Example I-108, (S)-1-(4-acetyl-3-methyl-7-(1-(oxetan-3-yl)-1H-pyrazol-4-yl)-3,4-dihydroquinoxalin-1 (2H)-yl)-3,3,3-trifluoropropan-1-one]: more than 10 µM and 0.05 to 0.5 µM.
On to `CC(=O)N1c2ccc(-c3ccc(=O)n(C)c3)cc2N(C(=O)c2ccco2)C[C@@H]1C` [Example I-411], for which the figures for the IC50 on BRD4 BD1 and on BRD4 BD2 were 1 to 10 µM and 0.05 to 0.5 µM, respectively.
The matching figures for `C[C@H]1CN(C(=O)c2ccco2)c2cc(-c3ccc(S(C)(=O)=O)cc3)ccc2N1C(N)=O` [Example I-987]: more than 10 µM and more than 0.5 µM.
As to `CC(=O)N1c2ccccc2N(C(=O)c2cccc3[nH]ccc23)CC1C` (stereo not shown) [Example I-770], the IC50 at BRD4 BD1 was more than 10 µM; on BRD4 BD2 it was more than 0.5 µM.
The matching figures for `CC(=O)N1c2ccc(-c3ccccn3)cc2N(C(=O)c2ccco2)C[C@@H]1C` [Example I-381]: 1 to 10 µM and 0.05 to 0.5 µM.
As for `CC(=O)N1c2ccccc2N(Cc2ccc(Cl)cc2Cl)C[C@@H]1C` [Example I-894], the IC50 at BRD4 BD1 is more than 10 µM; at BRD4 BD2, more than 0.5 µM.
Taken in the same sequence, the figures for `CC(=O)N1c2ccccc2N(S(=O)(=O)c2ccc(C(F)(F)F)nc2)C[C@@H]1C` [Example I-951] were more than 10 µM and more than 0.5 µM.
Taken in the same sequence, the figures for `CC(=O)N1c2ccccc2N(Cc2ccc(C)cc2)C[C@@H]1C` [Example I-895] were more than 10 µM and more than 0.5 µM.
The matching figures for `CC(=O)N1c2ccccc2N(Cc2ccccc2)C[C@@H]1C` [Example I-909]: more than 10 µM and 0.05 to 0.5 µM.

Values taken from US10703764B2, “Benzopiperazine compositions as BET bromodomain inhibitors” (FORMA Therapeutics, Inc., priority 2013, dated 2020).
